These results are taken from ChEMBL document CHEMBL4402560, “Sarco/Endoplasmic Reticulum Calcium ATPase Inhibitors: Beyond Anticancer Perspective” (J Med Chem, 2020).

A word on the IC50: it is the concentration that gives 50% inhibition. By inhibition is commonly meant the percentage by which the read-out fell short of the control. As a reminder, the Ki is the dissociation constant of the complex between target and ligand, obtained from inhibition or displacement. Read a high Ki as lower affinity.

A short description of assay [1]: Inhibition of SERCA in human PC3 cell microsomes by enzyme-coupled method.
Assay [2] deals with T1, Sarcoplasmic/endoplasmic reticulum calcium ATPase 1 (Oryctolagus cuniculus, UniProt P04191). Nature of the assay: Inhibition of rabbit SERCA1a.
A short description of assay [3]: Inhibition of fish liver microsomes SERCA by enzyme-coupled method. More on the design: species or system Squalius cephalus. (Liver microsomes are a subcellular fraction often used to study metabolism.)
Assay [4] concerns the target Sarcoplasmic/endoplasmic reticulum calcium ATPase 2 (Mus musculus, UniProt O55143). As to the kind of experiment: Inhibition of SERCA2b in mouse testicular microsomes. Details: species or system Testis.
Assay [5] addresses Sarcoplasmic/endoplasmic reticulum calcium ATPase 3 (Mus musculus, UniProt Q64518). As to the kind of experiment: Inhibition of SERCA3 in mouse testicular microsomes. Details: species or system Testis.
The target of assay [6] is T1, Sarcoplasmic/endoplasmic reticulum calcium ATPase 1. Nature of the assay: Inhibition of SERCA1a in rabbit microsomes.
Assay [7] is filed under the species Oryctolagus cuniculus. Nature of the assay: Inhibition of rabbit kidney Sodium/potassium-transporting ATPase by PK/LDH method.
Assay [8] has as its target Potassium-transporting ATPase (Sus scrofa, UniProt P19156). Nature of the assay: Inhibition of pig gastric mucosa Potassium-transporting ATPase by malachite green based colorimetric method. It counts as protein-complex assay, Sus scrofa domesticus.
The species named for assay [9] is Oryctolagus cuniculus. Nature of the assay: Inhibition of rabbit kidney Sodium/potassium-transporting ATPase by malachite green based colorimetric method.
Assay [10] addresses T1, Sarcoplasmic/endoplasmic reticulum calcium ATPase 1. Nature of the assay: Inhibition of rabbit skeletal muscle microsomes SERCA1a incubated for 10 mins by enzyme-coupled method.
A short description of assay [11]: Inhibition of porcine cerebellar microsomes SERCA2b incubated for 10 mins by enzyme-coupled method. Details: species or system Sus scrofa domesticus, Cerebellum.
The nature of assay [12]: Inhibition of SERCA (unknown origin). More on the design: species or system Homo sapiens.
Assay [13] is described as follows: Inhibition of Sodium/potassium-transporting ATPase in porcine brain peincubated for 5 mins followed by addition of ATP and measured after 15 mins. The assay is classed as tissue-based, Sus scrofa domesticus.
Assay [14] can be described thus: Inhibition of Sodium/potassium-transporting ATPase in guinea pig brain peincubated for 5 mins followed by addition of ATP and measured after 15 mins. The assay is classed as tissue-based, Cavia porcellus.
Assay [15] is described as follows: Inhibition of Sodium/potassium-transporting ATPase in guinea pig heart peincubated for 5 mins followed by addition of ATP and measured after 15 mins. The assay is classed as tissue-based, Cavia porcellus.
Assay [16] is described as follows: Inhibition of Sodium/potassium-transporting ATPase in dog kidney peincubated for 5 mins followed by addition of ATP and measured after 15 mins. It counts as tissue-based, Canis lupus familiaris.
The target in assay [17] is T1, Sarcoplasmic/endoplasmic reticulum calcium ATPase 1. As to the kind of experiment: Inhibition of rabbit skeletal muscle microsomes SERCA1a.
A short description of assay [18]: Inhibition of SERCA2a in porcine cardiac microsomes. More on the design: species or system Sus scrofa domesticus, Heart.
For assay [19], the target named is T1, Sarcoplasmic/endoplasmic reticulum calcium ATPase 1. As to the kind of experiment: Inhibition of rabbit SERCA1a incubated for 10 mins by enzyme-coupled method.
The target of assay [20] is Sarcoplasmic/endoplasmic reticulum calcium ATPase 1 (Mus musculus) (UniProt Q8R429). As to the kind of experiment: Inhibition of SERCA1 in C57BL/6 mouse primary neurons at 30 uM by UV-Vis spectrophotometric method relative to control.
Another assay relates to HeLa. Nature of the assay: Antiproliferative activity against human HeLa cells. The assay is classed as functional, cell-based.
For assay [21], the target named is Sarcoplasmic/endoplasmic reticulum calcium ATPase 2 (Mus musculus) (UniProt O55143). Nature of the assay: Inhibition of SERCA2 in C57BL/6 mouse primary neurons at 30 uM by UV-Vis spectrophotometric method relative to control.
A short description of assay [22]: Competitive inhibition of SERCA (unknown origin) by liquid scintillation counting method. Details: species or system Homo sapiens.
For assay [23], the target named is Sodium/potassium-transporting ATPase. As to the kind of experiment: Competitive inhibition of Sodium/potassium-transporting ATPase (unknown origin) by liquid scintillation counting method. It counts as protein-complex assay, Homo sapiens.
Assay [24] concerns the target Sarcoplasmic/endoplasmic reticulum calcium ATPase 1 (Homo sapiens, UniProt O14983). Nature of the assay: Inhibition of SERCA1a (unknown origin) incubated for 10 mins by enzyme-coupled method.
Assay [25] is described as follows: Inhibition of rabbit skeletal muscle microsomes SERCA incubated for 3 mins by [gamma32P]ATP based radiometric assay. Details: species or system Oryctolagus cuniculus.
The nature of assay [26]: Inhibition of Porcine cardiac microsomes SERCA preincubated for 10 mins followed by addition of ATP and measured after 10 mins by colorimetric method. More on the design: species or system Sus scrofa domesticus, Heart.
For assay [27], the target named is T1, Sarcoplasmic/endoplasmic reticulum calcium ATPase 1. As to the kind of experiment: Inhibition of rabbit SERCA1a preincubated for 10 mins followed by addition of ATP and measured after 10 mins by colorimetric method.
Another assay is filed under the species Sus scrofa domesticus. Nature of the assay: Inhibition of Porcine cerebellar microsomes SERCA at 200 uM preincubated for 10 mins followed by addition of ATP and measured after 10 mins by colorimetric method relative to control. To be noted: Cerebellum.
The nature of assay [28]: Inhibition of Porcine cerebellar microsomes SERCA preincubated for 10 mins followed by addition of ATP and measured after 10 mins by colorimetric method. Details: species or system Sus scrofa domesticus, Cerebellum.
Assay [29] in a line: Inhibition of SERCA in chicken cerebellar microsomes. More on the design: species or system Gallus gallus, Cerebellum.

T1 sequence (P04191 whole entry): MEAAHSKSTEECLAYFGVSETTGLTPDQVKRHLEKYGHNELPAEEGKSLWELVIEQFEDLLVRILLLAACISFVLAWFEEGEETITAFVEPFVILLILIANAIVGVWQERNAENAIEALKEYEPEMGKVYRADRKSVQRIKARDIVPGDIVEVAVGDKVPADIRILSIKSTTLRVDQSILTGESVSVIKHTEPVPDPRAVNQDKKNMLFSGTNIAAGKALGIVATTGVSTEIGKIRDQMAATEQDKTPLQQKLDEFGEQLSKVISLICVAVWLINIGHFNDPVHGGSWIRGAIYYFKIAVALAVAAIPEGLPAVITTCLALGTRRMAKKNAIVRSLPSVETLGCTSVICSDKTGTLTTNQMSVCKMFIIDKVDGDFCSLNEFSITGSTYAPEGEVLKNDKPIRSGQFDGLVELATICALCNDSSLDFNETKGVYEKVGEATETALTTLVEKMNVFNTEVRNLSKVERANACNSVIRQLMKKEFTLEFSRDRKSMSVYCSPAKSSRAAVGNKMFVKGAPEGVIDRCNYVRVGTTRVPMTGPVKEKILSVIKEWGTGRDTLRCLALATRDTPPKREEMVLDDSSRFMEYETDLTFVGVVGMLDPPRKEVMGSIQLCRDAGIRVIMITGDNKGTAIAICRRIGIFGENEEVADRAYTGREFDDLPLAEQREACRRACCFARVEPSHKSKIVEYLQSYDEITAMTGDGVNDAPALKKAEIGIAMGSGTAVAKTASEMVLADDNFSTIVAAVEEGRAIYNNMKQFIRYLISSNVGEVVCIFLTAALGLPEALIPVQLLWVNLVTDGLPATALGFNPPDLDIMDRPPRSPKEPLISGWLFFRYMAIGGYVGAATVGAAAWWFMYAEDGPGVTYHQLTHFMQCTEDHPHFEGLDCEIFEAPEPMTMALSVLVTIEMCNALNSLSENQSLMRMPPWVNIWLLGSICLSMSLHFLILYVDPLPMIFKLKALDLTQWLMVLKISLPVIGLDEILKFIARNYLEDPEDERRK
Chain of Sarcoplasmic/endoplasmic reticulum calcium ATPase 1 (Mus musculus) (Q8R429 whole entry): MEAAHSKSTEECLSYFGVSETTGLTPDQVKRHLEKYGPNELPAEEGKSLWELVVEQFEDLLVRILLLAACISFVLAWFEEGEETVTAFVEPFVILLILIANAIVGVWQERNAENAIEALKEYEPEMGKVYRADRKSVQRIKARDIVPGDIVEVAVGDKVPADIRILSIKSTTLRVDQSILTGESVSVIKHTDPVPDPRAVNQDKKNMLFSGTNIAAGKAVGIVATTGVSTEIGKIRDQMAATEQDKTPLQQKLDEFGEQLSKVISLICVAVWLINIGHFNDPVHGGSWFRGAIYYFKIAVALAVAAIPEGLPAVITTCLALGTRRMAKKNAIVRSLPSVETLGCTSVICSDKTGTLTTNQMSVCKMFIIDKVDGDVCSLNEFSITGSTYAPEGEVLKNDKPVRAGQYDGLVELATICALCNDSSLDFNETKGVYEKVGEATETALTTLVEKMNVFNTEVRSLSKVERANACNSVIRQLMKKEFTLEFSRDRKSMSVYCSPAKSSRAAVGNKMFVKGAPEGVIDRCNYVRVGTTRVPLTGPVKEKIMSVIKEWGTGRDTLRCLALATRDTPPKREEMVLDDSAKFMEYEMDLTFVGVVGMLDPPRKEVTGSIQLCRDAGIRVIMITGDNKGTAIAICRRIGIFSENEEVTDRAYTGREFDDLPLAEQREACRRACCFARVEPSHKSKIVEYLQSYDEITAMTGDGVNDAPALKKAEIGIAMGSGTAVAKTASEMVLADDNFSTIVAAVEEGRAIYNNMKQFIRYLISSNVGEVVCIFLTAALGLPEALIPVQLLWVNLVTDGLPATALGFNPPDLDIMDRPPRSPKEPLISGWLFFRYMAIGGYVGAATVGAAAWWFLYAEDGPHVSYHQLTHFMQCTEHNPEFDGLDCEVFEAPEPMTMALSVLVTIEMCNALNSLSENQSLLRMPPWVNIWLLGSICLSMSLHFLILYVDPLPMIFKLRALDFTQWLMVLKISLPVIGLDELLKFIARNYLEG
Chain of Potassium-transporting ATPase (P18434 whole entry): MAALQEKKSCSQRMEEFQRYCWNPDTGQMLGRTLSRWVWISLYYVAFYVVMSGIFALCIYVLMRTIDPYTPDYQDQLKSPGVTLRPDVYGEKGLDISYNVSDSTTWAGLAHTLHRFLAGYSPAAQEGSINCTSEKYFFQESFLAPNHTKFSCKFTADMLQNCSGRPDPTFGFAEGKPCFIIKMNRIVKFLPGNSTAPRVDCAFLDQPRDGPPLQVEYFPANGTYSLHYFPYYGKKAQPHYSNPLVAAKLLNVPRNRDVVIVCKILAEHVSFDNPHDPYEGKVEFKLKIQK
Chain of Potassium-transporting ATPase (P19156 whole entry): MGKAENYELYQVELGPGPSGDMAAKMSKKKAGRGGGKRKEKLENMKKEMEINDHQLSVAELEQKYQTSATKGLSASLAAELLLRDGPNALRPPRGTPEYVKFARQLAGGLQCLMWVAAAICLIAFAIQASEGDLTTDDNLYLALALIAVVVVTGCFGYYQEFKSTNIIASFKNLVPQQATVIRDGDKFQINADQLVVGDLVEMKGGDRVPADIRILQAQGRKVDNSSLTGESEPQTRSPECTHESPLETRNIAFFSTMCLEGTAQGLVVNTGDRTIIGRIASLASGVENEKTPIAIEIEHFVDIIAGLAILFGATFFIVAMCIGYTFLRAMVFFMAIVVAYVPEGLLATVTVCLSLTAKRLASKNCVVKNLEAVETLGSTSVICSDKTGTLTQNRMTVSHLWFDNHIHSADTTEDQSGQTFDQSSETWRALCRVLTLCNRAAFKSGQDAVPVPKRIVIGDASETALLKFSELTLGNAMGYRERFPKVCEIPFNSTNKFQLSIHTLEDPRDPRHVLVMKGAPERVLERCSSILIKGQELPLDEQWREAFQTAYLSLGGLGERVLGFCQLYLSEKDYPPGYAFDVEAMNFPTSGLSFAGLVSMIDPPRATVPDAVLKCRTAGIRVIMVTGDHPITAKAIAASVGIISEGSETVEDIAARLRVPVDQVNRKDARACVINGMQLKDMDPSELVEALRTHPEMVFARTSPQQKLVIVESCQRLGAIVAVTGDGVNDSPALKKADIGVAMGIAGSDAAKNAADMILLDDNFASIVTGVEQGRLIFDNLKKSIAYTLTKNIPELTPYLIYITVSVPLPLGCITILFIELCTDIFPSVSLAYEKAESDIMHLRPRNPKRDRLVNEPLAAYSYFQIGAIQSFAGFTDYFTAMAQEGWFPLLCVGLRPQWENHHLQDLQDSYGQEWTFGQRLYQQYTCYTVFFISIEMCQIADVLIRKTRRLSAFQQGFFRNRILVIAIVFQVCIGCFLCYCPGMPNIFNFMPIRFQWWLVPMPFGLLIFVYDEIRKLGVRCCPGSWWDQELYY
Chain of Sarcoplasmic/endoplasmic reticulum calcium ATPase 1 (Homo sapiens, UniProt O14983) (O14983 whole entry): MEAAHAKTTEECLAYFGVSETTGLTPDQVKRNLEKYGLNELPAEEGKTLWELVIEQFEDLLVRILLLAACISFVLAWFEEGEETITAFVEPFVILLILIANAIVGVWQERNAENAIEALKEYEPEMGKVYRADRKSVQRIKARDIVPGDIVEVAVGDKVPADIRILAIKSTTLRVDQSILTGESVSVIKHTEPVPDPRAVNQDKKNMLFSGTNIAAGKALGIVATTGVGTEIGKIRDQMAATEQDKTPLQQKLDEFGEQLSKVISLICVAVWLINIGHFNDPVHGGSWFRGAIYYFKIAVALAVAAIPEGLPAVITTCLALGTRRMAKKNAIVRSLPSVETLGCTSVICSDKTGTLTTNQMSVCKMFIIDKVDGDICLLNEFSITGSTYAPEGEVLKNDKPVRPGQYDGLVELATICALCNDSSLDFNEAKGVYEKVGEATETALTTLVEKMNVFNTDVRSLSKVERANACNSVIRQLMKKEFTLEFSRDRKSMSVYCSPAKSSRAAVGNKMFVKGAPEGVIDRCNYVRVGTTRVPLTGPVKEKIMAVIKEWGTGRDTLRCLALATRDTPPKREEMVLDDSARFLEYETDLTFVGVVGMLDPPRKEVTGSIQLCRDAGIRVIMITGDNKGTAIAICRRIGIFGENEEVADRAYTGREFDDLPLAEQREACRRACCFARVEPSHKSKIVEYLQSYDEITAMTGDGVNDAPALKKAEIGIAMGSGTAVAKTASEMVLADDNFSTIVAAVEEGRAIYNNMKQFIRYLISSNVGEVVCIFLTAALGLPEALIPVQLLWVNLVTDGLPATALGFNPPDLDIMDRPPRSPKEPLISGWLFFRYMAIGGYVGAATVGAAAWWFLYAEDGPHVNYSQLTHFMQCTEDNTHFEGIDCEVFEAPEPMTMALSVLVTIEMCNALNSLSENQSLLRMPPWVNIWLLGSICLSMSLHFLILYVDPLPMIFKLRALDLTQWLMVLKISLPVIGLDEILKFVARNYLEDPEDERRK

Molecule `Cc1ccc(-c2cc(C(F)(F)F)nn2-c2ccc(S(N)(=O)=O)cc2)cc1` [CELECOXIB] yielded a 50% inhibitory concentration (IC50) in [1] of 32 µM.
In the case of `CCCCCCCCCc1ccc(O)cc1` [4-NONYLPHENOL], the IC50 in assay [2] is 0.35 to 6 µM; in [3] it was 4 µM; in assay [4], 0.35 to 6 µM; in [5], 0.35 to 6 µM; in [6] it was 0.35 to 6 µM.
On to `Clc1ccccc1C(c1ccccc1)(c1ccccc1)n1ccnc1` [CLOTRIMAZOLE], for which the K0.5 in the assay listed under Oryctolagus cuniculus [7] and in the assay listed under Oryctolagus cuniculus [9] was 24 to 30 µM throughout. The IC50 in assay [8] worked out at 5.2 µM.
With `Clc1ccc(C(c2ccc(Cl)cc2)[n+]2ccn(CC(OCc3ccc(Cl)cc3Cl)c3ccc(Cl)cc3Cl)c2)cc1` (centres undefined) [CALMIDAZOLIUM CHLORIDE], the IC50 in assay [10] and in assay [11] was 0.5 µM in each case.
As for `CC1=CCC[C@@H]2[C@@](C)(CC/C(C)=C/Cn3c[n+](C)c4ncnc(N)c43)[C@H](C)CC[C@@]12C`, the IC50 was 5.58 µM in assay [12]; 11 to 29 µM in [13]; 11 to 29 µM in assay [14]; 11 to 29 µM in assay [15]; 11 to 29 µM in assay [16].
Take `O=C1CSC(c2ccccc2Cl)c2cc(Cl)ccc2N1` (centres undefined): the results for the IC50 in [17] and in assay [18] were 6.6 µM and 9.9 µM, respectively.
On to `C/C=C(\C)C(=O)O[C@@H]1C[C@H]2C(=C1C)[C@@H]1OC(=O)[C@@](C)(O)[C@@]1(O)[C@@H](OC(=O)[C@H](C)CC)C[C@@]2(C)OC(C)=O`, for which the IC50 in [19] was 20 µM.
For `C[C@H]1O[C@@H](O[C@H]2CC[C@@]3(C)[C@@H](CC[C@]4(C)[C@@H]3C=C[C@]35OC[C@@]6(CCC(C)(C)C[C@H]63)[C@H](O)C[C@]54C)[C@]2(C)CO)[C@H](O)[C@@H](O[C@@H]2O[C@H](CO)[C@@H](O)[C@H](O)[C@H]2O)[C@H]1O`, the figures for the IC50 (in [12]; with HeLa) were 50 µM and 10 µM, respectively. The inhibition in [20] was 10%; in assay [21], 18%.
Take `N=C(N)SCc1cc(CSC(=N)N)c(Br)c(CSC(=N)N)c1Br`: the Ki in [22] came out at 20 µM; in assay [23], 0.32 µM. In addition, the IC50 in assay [17] worked out at 29 µM.
On to `COc1ccc2c(c[n+](C)c3c4cc5c(cc4ccc23)OCO5)c1OC` [CHELERYTHRINE], for which the results for the IC50 in assay [10], in [24] and in [25] were 1.2 µM, 27 µM and 1.5 µM, respectively.
Take `CO[C@H]1C[C@@H]2CC[C@@H](C)[C@@](O)(O2)C(=O)C(=O)N2CCCC[C@H]2C(=O)O[C@H]([C@H](C)C[C@@H]2CC[C@@H](O)[C@H](OC)C2)CC(=O)[C@H](C)/C=C(\C)[C@@H](O)[C@@H](OC)C(=O)[C@H](C)C[C@H](C)/C=C/C=C/C=C/1C` [SIROLIMUS]: the IC50 in assay [26], in assay [27] and in assay [28] was 77 µM each time. This molecule registered an inhibition in the assay filed under Sus scrofa domesticus of 80%.
In the case of SODIUM ORTHOVANAD, in assay [29], the IC50 lay in the range of 10 to 100 µM.
